Experimental findings from US4343812A, “Antidepressant 2-amino-and-2-(substituted amino)-cis-hexahydro-carbazoles, compositions and use” (E. I. Du Pont de Nemours and Company, priority 1980, dated 1982) are described below.

In the assay the test system is tetrabenazine-induced sedation and depression in mice. Briefly: Antagonism of tetrabenazine-induced depression in mice (prevention of ptosis and exploratory loss), orally at 1 hour post-drug. The assay is classed as in vivo, mice (Carworth CF1 S female). Conditions: Mus musculus, oral, tetrabenazine 32 mg/kg intraperitoneally 30 minutes after drug. The protocol: (Everett, "The Dopa Response Potentiation Test and Its Use in Screening for Antidepressant Drugs", pp. 164-167 in "Antidepressant Drugs" [Proceedings of the First International Symposium], S. Garattini and M. N. G. Dukes, eds., 1967). Groups of 10 Carworth CF1 S female mice, 18-21 g each, were fasted 1.5 hours and were intubated with antagonist compounds at oral doses of 0, 5, 25, and 125 mg/kg or 0, 1, 3, 9, 27, and 81 mg/kg in 0.20 ml of 1% Methocel (methylcellulose). The mice were challenged 30 minutes later with tetrabenazine (as the methane-sulfonate), 32 mg/kg intraperitoneally (dissolved in 0.20 ml 0.05 M KCl at pH 2.0). One hour after antagonist (30 minutes after tetrabenazine), the mice were examined for signs of exploratory activity and ptosis (eyelid closure). Normal exploratory activity (relief from sedation) was recorded when a mouse lifted by the tail from a group of 10 in a testing box and placed on a stainless steel testing box lid (12.5"×8" with 0.33" mesh) either turned its head horizontally 30° in both directions or moved to the edge of the screen within 10 seconds after being placed on the screen. Relief from ptosis was recorded when exactly two seconds after placing the mouse facing the observer, lid closure was less than 50% in both eyes. For comparison, the marketed antidepressant amitriptylene was also tested, and an ED50 (effective dose in 50% of the cases) was determined. The lower the ED50, the better the antidepressant.

Setting [1] is: read-out: ED50 For Prevention of Exploratory Loss.
Where [2] appears, read: read-out: ED50 For Prevention of Ptosis.

A word on the ED50: it is the midpoint of the dose-response relation.

Where a name gives a salt, the structure may show the parent alone. Read-outs that look alike come from different tables or passages of the source.

As for `CCCCCOc1ccc2c(c1)N[C@@H]1CC(NC(C)=O)CC[C@H]21` (stereo partly shown) [Compound 1L], the ED50 by setting is: under setting [1], 2 mg/kg; under setting [2], 2 mg/kg.

Turning to `CC(=O)NC1CC[C@@H]2c3ccccc3N[C@@H]2C1` (stereo partly drawn) [Compound 1a, N-(cis-1,3,4,4a,9,9a-hexahydro-2H-carbazol-2-yl)acetamide hydrochloride], the ED50 was determined as 2.3 mg/kg under setting [1] and 0.7 mg/kg under setting [2].

Take `CC(=O)NC1CC[C@@H]2c3cc(F)ccc3N[C@@H]2C1` (stereo partly shown) [Compound 1b]: the ED50 under setting [1] was determined as 4.2 mg/kg and the median effective dose (ED50) under setting [2] came out at 2.7 mg/kg.

On to `CC(=O)NC1CC[C@@H]2c3cc(Cl)ccc3N[C@@H]2C1` (stereo partly shown) [Compound 1c], for which the ED50 was found to be 14 mg/kg under setting [1] and 3.3 mg/kg under setting [2].

Take `CC(=O)NC1CC[C@@H]2c3cc(Br)ccc3N[C@@H]2C1` (stereo partly shown) [Compound 1d]: the ED50 under setting [1] was 3.3 mg/kg and the 50% effective dose (ED50) under setting [2] stood at 2.1 mg/kg.

`CC(=O)NC1CC[C@@H]2c3cc(C)ccc3N[C@@H]2C1` (stereo partly shown) [Compound 1e]: the ED50 under setting [1] worked out at 34 mg/kg and the 50% effective dose (ED50) under setting [2] was 16 mg/kg.

With `COc1ccc2c(c1)[C@H]1CCC(NC(C)=O)C[C@H]1N2` (stereo partly shown) [Compound 1f], the ED50 came to 27 mg/kg under setting [1] and 27 mg/kg under setting [2].

In the case of `CC(=O)NC1CC[C@@H]2c3ccc(O)cc3N[C@@H]2C1` (stereo partly shown) [Compound 1g], the ED50 runs as follows: under setting [1], 15.6 mg/kg; under setting [2], 8.1 mg/kg.

As for `COc1ccc2c(c1)NC1CC(NC(C)=O)CCC21` (stereo not shown) [Compound 1h], the 50% effective dose (ED50) was 4.2 mg/kg under setting [1] and 2.2 mg/kg under setting [2].

As for `CCOc1ccc2c(c1)N[C@@H]1CC(NC(C)=O)CC[C@H]21` (stereo partly shown) [Compound 1i], the 50% effective dose (ED50) worked out at 12.7 mg/kg under setting [1] and 8.9 mg/kg under setting [2].

In the case of `CCCOc1ccc2c(c1)N[C@@H]1CC(NC(C)=O)CC[C@H]21` (stereo partly shown) [Compound 1j], the ED50 reads like this: under setting [1], 0.99 mg/kg; under setting [2], 0.79 mg/kg.

Regarding `CCCCOc1ccc2c(c1)N[C@@H]1CC(NC(C)=O)CC[C@H]21` (stereo partly shown) [Compound 1k], the ED50 worked out at 0.35 mg/kg under setting [1] and 0.22 mg/kg under setting [2].

Regarding `CCCCCCOc1ccc2c(c1)N[C@@H]1CC(NC(C)=O)CC[C@H]21` (stereo partly shown) [Compound 1m], the ED50 is, setting by setting: under setting [1], 27 mg/kg; under setting [2], 27 mg/kg.

Consider `CC(=O)NC1CCC2c3ccc(OCc4ccccc4)cc3NC2C1` (stereo not shown) [Compound 1n], for which the ED50 worked out at 7.2 mg/kg under setting [1] and 6.5 mg/kg under setting [2].

In the case of `CC(=O)NC1CC[C@@H]2c3ccccc3N(C)[C@@H]2C1` (stereo partly drawn) [Compound 1o, N -(cis-1,3,4,4a,9,9a-hexahydro-9-methyl-2H-carbazol-2-yl)acetamide], the median effective dose (ED50) is, setting by setting: under setting [1], 27 mg/kg; under setting [2], 3.7 mg/kg.

As for `O=CNC1CCC2c3ccccc3NC2C1` (stereo not shown) [Compound 1p], the median effective dose (ED50) by setting is: under setting [1], 21 mg/kg; under setting [2], 21 mg/kg.

Consider `CCC(=O)NC1CCC2c3ccccc3NC2C1` (stereo not shown) [Compound 1q], for which the ED50 is, setting by setting: under setting [1], 18 mg/kg; under setting [2], 1.7 mg/kg.

As to `CCCCC(=O)NC1CCC2c3ccccc3NC2C1` (stereo not shown) [Compound 1r], the 50% effective dose (ED50) reads like this: under setting [1], 7.5 mg/kg; under setting [2], 6.5 mg/kg.

As for `CCOC(=O)NC1CCC2c3ccccc3NC2C1` (stereo not shown) [Compound 1s], the 50% effective dose (ED50) by setting is: under setting [1], 4 mg/kg; under setting [2], 4 mg/kg.

On to `COC(=O)NC1CCC2c3ccccc3NC2C1` (stereo not shown) [Compound 1t], for which the ED50 is, setting by setting: under setting [1], 9.7 mg/kg; under setting [2], 5.2 mg/kg.

On to `NC1CCC2c3ccccc3NC2C1` (stereo not shown) [Compound 1u], for which the ED50 under setting [1] came out at 0.75 mg/kg and the median effective dose (ED50) under setting [2] was found to be 0.57 mg/kg.

Take `CNC1CCC2c3ccccc3NC2C1` (stereo not shown) [Compound 1v]: the ED50 runs as follows: under setting [1], 3 mg/kg; under setting [2], 2.4 mg/kg.

Turning to `CCNC1CCC2c3ccccc3NC2C1` (stereo not shown) [Compound 1w], the 50% effective dose (ED50) under setting [1] was determined as 96 mg/kg and the median effective dose (ED50) under setting [2] came to 68 mg/kg.

For the compound `CN(C)C1CCC2c3ccccc3NC2C1` (stereo not shown) [Compound 1x], the median effective dose (ED50) under setting [1] amounted to 41 mg/kg and the ED50 under setting [2] stood at 37 mg/kg.

On to `CCN1c2ccccc2[C@H]2CCC(NC(C)=O)C[C@H]21` (stereo partly drawn) [Compound 1y, N-(cis-9-ethyl-1,3,4,4a,9,9a-hexahydro-2H-carbazol-2-yl) acetamide], for which the ED50 was determined as 5.2 mg/kg under setting [1] and 4.7 mg/kg under setting [2].

Consider `CCOc1ccc2c3c([nH]c2c1)CC(NC(C)=O)CC3` (stereo not shown) [Compound 2L, N-(7-ethoxy-1,3,4,9-tetrahydro-2H-carbazol-2-yl)acetamide], for which the 50% effective dose (ED50) runs as follows: under setting [1], 2 mg/kg; under setting [2], 2 mg/kg.

As for `CC(=O)NC1CCc2c([nH]c3ccccc23)C1` (stereo not shown) [Compound 2a, N-(1,3,4,9-tetrahydro-2H-carbazol-2-yl)acetamide], the 50% effective dose (ED50) by setting is: under setting [1], 2.4 mg/kg; under setting [2], 1.1 mg/kg.

In the case of `CC(=O)NC1CCc2c([nH]c3ccc(F)cc23)C1` (stereo not shown) [Compound 2b, N-(6-fluoro-1,3,4,9-tetrahydro-2H-carbazol-2-yl)acetamide], the ED50 worked out at 2.4 mg/kg under setting [1] and 0.7 mg/kg under setting [2].

As to `CC(=O)NC1CCc2c([nH]c3ccc(Cl)cc23)C1` (stereo not shown) [Compound 2c], the ED50 runs as follows: under setting [1], 6.5 mg/kg; under setting [2], 2.4 mg/kg.

Regarding `CC(=O)NC1CCc2c([nH]c3ccc(Br)cc23)C1` (stereo not shown) [Compound 2d, N-(6-bromo-1,3,4,9-tetrahydro-2H-carbazol-2-yl)acetamide], the ED50 under setting [1] was determined as 17.4 mg/kg and the median effective dose (ED50) under setting [2] was 10 mg/kg.

As to `CC(=O)NC1CCc2c([nH]c3c(F)cccc23)C1` (stereo not shown) [Compound 2e], the ED50 worked out at 19.7 mg/kg under setting [1] and 14 mg/kg under setting [2].

As for `CC(=O)NC1CCc2c([nH]c3cc(Cl)cc(Cl)c23)C1` (stereo not shown) [Compound 2f], the median effective dose (ED50) is, setting by setting: under setting [1], 4.7 mg/kg; under setting [2], 3.3 mg/kg.

Turning to `CC(=O)NC1CCc2c([nH]c3ccc(C)cc23)C1` (stereo not shown) [Compound 2g], the 50% effective dose (ED50) under setting [1] was 7.2 mg/kg and the ED50 under setting [2] was 3 mg/kg.

`COc1ccc2[nH]c3c(c2c1)CCC(NC(C)=O)C3` (stereo not shown) [Compound 2h, N-(1,3,4,9-tetrahydro-6-methoxy-2H-carbazol-2-yl)acetamide]: the ED50 under setting [1] came to 6.5 mg/kg and the ED50 under setting [2] was determined as 5.8 mg/kg.

Consider `COc1ccc2c3c([nH]c2c1)CC(NC(C)=O)CC3` (stereo not shown) [Compound 2i, N-(1,3,4,9-tetrahydro-7-methoxy-2H-carbazol-2-yl)acetamide], for which the ED50 is 0.9 mg/kg under setting [1] and 0.8 mg/kg under setting [2].

In the case of `CCCCOc1ccc2c3c([nH]c2c1)CC(NC(C)=O)CC3` (stereo not shown) [Compound 2j, N-(7-n-butyloxy-1,3,4,9-tetrahydro-2H-carbazol-2-yl)acetamide], the median effective dose (ED50) reads like this: under setting [1], 0.57 mg/kg; under setting [2], 0.51 mg/kg.

`CC(=O)NC1CCc2c([nH]c3cc(O)ccc23)C1` (stereo not shown) [Compound 2k, N-(1,3,4,9-tetrahydro-7-hydroxy-2H-carbazol-2-yl)acetamide]: the ED50 was above 125 mg/kg under setting [1] and above 125 mg/kg under setting [2].

Turning to `CCCOc1ccc2c3c([nH]c2c1)CC(NC(C)=O)CC3` (stereo not shown) [Compound 2m], the ED50 under setting [1] is 0.6 mg/kg and the median effective dose (ED50) under setting [2] was 0.6 mg/kg.

Turning to `CCCCCOc1ccc2c3c([nH]c2c1)CC(NC(C)=O)CC3` (stereo not shown) [Compound 2n], the 50% effective dose (ED50) under setting [1] worked out at 4.3 mg/kg and the ED50 under setting [2] came to 2.7 mg/kg.

Turning to `CCCCCCOc1ccc2c3c([nH]c2c1)CC(NC(C)=O)CC3` (stereo not shown) [Compound 2o], the ED50 came out at 12 mg/kg under setting [1] and 14 mg/kg under setting [2].

Regarding `CC(=O)NC1CCc2c([nH]c3cc(OCc4ccccc4)ccc23)C1` (stereo not shown) [Compound 2p], the median effective dose (ED50) turned out to be 6.5 mg/kg under setting [1] and 6.5 mg/kg under setting [2].

Take `CC(=O)NC1CCc2c(n(C)c3ccccc23)C1` (stereo not shown) [Compound 3L, N-(1,3,4,9-tetrahydro-9-methyl-2H-carbazol-2-yl)acetamide]: the median effective dose (ED50) under setting [1] came out at 11.2 mg/kg and the ED50 under setting [2] came to 9 mg/kg.

For the compound `Cl.NC1CCc2c([nH]c3ccccc23)C1` (stereo not shown) [Compound 3a, 2,3,4,9-Tetrahydro-1H-carbazol-2-amine hydrochloride], the ED50 under setting [1] was found to be 8 mg/kg and the 50% effective dose (ED50) under setting [2] amounted to 4 mg/kg.

Regarding `O=CNC1CCc2c([nH]c3ccccc23)C1` (stereo not shown) [Compound 3b, N-(1,3,4,9-tetrahydro-2H-carbazol-2-yl)formamide], the median effective dose (ED50) by setting is: under setting [1], above 125 mg/kg; under setting [2], 84 mg/kg.

In the case of `CCC(=O)NC1CCc2c([nH]c3ccccc23)C1` (stereo not shown) [Compound 3c, N-(1,3,4,9-tetrahydro-2H-carbazol-2-yl)propanamide], the median effective dose (ED50) is, setting by setting: under setting [1], above 81 mg/kg; under setting [2], 67 mg/kg.

Turning to `CCCCC(=O)NC1CCc2c([nH]c3ccccc23)C1` (stereo not shown) [Compound 3d], the ED50 under setting [1] was above 81 mg/kg and the ED50 under setting [2] was above 81 mg/kg.

As to `CCOC(=O)NC1CCc2c([nH]c3ccccc23)C1` (stereo not shown) [Compound 3e, (1,3,4,9-tetrahydro-2H-carbazol-2-yl)carbamic acid, ethyl ester], the ED50 is above 81 mg/kg under setting [1] and 40 mg/kg under setting [2].

Consider `COC(=O)NC1CCc2c([nH]c3ccccc23)C1` (stereo not shown) [Compound 3f], for which the ED50 is, setting by setting: under setting [1], above 81 mg/kg; under setting [2], above 81 mg/kg.

As for `CCOC(=O)N(C)C1CCc2c([nH]c3ccccc23)C1` (stereo not shown) [Compound 3g, Methyl(1,3,4,9-tetrahydro-2H-carbazol-2-yl)carbamic acid, ethyl ester], the median effective dose (ED50) by setting is: under setting [1], 27 mg/kg; under setting [2], 7.8 mg/kg.

`CC(=O)N(C)C1CCc2c([nH]c3ccccc23)C1` (stereo not shown) [Compound 3h, N-(1,3,4,9-tetrahydro-2H-carbazol-2-yl)-N-methylacetamide]: the ED50 by setting is: under setting [1], above 125 mg/kg; under setting [2], above 125 mg/kg.
